In general, IC50 refers to the midpoint of a concentration-inhibition curve. Low readings indicate inhibition by little substance, high ones a need for much substance. By Ki is commonly meant the equilibrium dissociation constant of an inhibitor or competing ligand from its target. Higher therefore signals a looser hold on the target.

Data on three compounds can be found in ChEMBL document CHEMBL5212743, “Selectivity Literature for EUbOPEN Chemogenomics Library wave 3” (2023).

Where only a bound is given, the exact number is not on record here.

Experiment [1] concerns the target Chymotrypsin-like elastase family member 1 (Homo sapiens, UniProt Q9UNI1). Description: Selectivity interaction (Serine protease panel) EUB0000735a CELA1.
In a further experiment the target is Chymase (Homo sapiens, UniProt P23946). Description: Selectivity interaction (Serine protease panel) EUB0000735a CMA1.
The target of another experiment is Chymotrypsin-C (Homo sapiens, UniProt Q99895). The experiment can be described thus: Selectivity interaction (Serine protease panel) EUB0000735a CTRC.
In another experiment the target is Cathepsin G (Homo sapiens, UniProt P08311). The experiment can be described thus: Selectivity interaction (Serine protease panel) EUB0000735a CTSG.
Chain of Cathepsin G (P08311 whole entry): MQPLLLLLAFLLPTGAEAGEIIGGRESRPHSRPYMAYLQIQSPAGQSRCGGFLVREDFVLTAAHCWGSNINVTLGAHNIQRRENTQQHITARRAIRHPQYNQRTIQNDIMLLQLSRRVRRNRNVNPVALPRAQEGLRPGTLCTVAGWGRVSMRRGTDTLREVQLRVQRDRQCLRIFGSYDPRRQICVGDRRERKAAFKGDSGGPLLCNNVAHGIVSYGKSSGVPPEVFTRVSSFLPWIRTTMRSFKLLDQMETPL
The next experiment addresses Coagulation factor XI (Homo sapiens, UniProt P03951). Description: Selectivity interaction (Serine protease panel) EUB0000735a F11.
Another experiment concerns the target Coagulation factor VII (Homo sapiens, UniProt P08709). Description: Selectivity interaction (Serine protease panel) EUB0000735a F7.
The target in another experiment is Coagulation factor IX (Homo sapiens, UniProt P00740). The experiment can be described thus: Selectivity interaction (Serine protease panel) EUB0000735a F9.
A further experiment deals with Kallikrein-1 (Homo sapiens, UniProt P06870). The experiment can be described thus: Selectivity interaction (Serine protease panel) EUB0000735a KLK1.
In the next experiment the target is Kallikrein-12 (Homo sapiens, UniProt Q9UKR0). The experiment can be described thus: Selectivity interaction (Serine protease panel) EUB0000735a KLK12.
A further experiment addresses Kallikrein-4 (Homo sapiens, UniProt Q9Y5K2). The experiment can be described thus: Selectivity interaction (Serine protease panel) EUB0000735a KLK4.
The next experiment concerns the target Kallikrein-5 (Homo sapiens, UniProt Q9Y337). Description: Selectivity interaction (Serine protease panel) EUB0000735a KLK5.
The target in a further experiment is Kallikrein-7 (Homo sapiens, UniProt P49862). The experiment can be described thus: Selectivity interaction (Serine protease panel) EUB0000735a KLK7.
Another experiment addresses Plasma kallikrein (Homo sapiens, UniProt P03952). Description: Selectivity interaction (Serine protease panel) EUB0000735a KLKB1.
In the next experiment the target is Plasminogen (Homo sapiens, UniProt P00747). Description: Selectivity interaction (Serine protease panel) EUB0000735a PLG.
The target of a further experiment is Serine protease 1 (Homo sapiens, UniProt P07477). The experiment can be described thus: Selectivity interaction (Serine protease panel) EUB0000735a PRSS1.
Chain of Serine protease 1 (P07477 whole entry): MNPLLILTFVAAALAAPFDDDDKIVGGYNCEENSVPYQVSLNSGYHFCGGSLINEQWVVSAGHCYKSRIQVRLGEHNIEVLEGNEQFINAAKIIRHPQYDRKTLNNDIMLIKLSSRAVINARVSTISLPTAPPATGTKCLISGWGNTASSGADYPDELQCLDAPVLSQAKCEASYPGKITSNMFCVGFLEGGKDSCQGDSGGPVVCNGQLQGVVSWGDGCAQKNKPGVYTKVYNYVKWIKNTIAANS
In the next experiment the target is Dipeptidyl peptidase 2 (Homo sapiens, UniProt Q9UHL4). Description: Selectivity interaction (Serine protease panel) EUB0000735a DPP7.
A further experiment deals with Dipeptidyl peptidase 4 (Homo sapiens, UniProt P27487). Description: Selectivity interaction (Serine protease panel) EUB0000735a DPP4.
Chain of Dipeptidyl peptidase 4 (P27487 whole entry): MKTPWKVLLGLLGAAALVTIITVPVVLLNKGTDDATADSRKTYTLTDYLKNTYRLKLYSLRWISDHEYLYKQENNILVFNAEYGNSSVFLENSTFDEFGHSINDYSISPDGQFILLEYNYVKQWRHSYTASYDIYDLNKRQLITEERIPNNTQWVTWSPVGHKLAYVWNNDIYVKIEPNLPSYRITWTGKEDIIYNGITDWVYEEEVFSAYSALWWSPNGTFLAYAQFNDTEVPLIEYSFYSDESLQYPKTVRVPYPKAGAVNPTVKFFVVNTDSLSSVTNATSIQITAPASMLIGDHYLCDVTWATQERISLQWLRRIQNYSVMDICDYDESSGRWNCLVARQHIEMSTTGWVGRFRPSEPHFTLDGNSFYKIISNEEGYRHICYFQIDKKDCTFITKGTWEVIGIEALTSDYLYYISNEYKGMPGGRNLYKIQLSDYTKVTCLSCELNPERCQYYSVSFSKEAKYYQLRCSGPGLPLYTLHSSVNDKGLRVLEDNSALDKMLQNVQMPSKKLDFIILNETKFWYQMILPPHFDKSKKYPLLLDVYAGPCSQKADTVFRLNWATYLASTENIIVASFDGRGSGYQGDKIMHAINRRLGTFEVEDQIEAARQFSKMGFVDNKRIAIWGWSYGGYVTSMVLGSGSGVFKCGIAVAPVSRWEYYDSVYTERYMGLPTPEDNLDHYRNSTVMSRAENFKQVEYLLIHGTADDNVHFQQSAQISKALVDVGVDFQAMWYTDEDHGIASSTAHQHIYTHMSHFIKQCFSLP
The target of a further experiment is Prolyl endopeptidase FAP (Homo sapiens, UniProt Q12884). The experiment can be described thus: Selectivity interaction (Serine protease panel) EUB0000735a FAP.
For experiment [2], the target named is cAMP-dependent protein kinase catalytic subunit beta (Homo sapiens) (UniProt P22694). The experiment can be described thus: Selectivity interaction (KinomeScan (DiscoverX)) EUB0000735a PRKACB. As to conditions: at 1 µM.
The target in experiment [3] is cGMP-dependent protein kinase 1 (Homo sapiens) (UniProt Q13976). The experiment can be described thus: Selectivity interaction (KinomeScan (DiscoverX)) EUB0000735a PRKG1. As to conditions: at 1 µM.
The target of experiment [4] is T1, Gamma-aminobutyric acid receptor subunit alpha-1 (Homo sapiens, UniProt P14867).
T1 sequence (P14867 whole entry): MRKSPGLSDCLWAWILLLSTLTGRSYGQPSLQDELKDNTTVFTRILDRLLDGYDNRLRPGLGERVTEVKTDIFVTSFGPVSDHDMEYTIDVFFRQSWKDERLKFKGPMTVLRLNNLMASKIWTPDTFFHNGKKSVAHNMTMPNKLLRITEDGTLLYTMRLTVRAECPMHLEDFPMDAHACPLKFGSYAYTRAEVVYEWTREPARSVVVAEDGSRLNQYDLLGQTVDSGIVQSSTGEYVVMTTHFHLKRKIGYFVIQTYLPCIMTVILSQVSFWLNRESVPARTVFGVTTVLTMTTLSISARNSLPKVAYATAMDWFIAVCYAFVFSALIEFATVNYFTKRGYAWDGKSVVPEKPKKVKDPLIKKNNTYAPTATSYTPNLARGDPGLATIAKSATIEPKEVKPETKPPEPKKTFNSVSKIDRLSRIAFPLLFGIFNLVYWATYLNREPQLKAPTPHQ
The experiment can be described thus: Selectivity interaction (GPCR panel (PDSP screen)) EUB0000302b GABRA1.

The target of another experiment is D(2) dopamine receptor (Homo sapiens, UniProt P14416). The experiment can be described thus: Selectivity interaction (GPCR panel (PDSP screen)) EUB0000728a DRD2. Conditions: at 10 µM.
Chain of D(2) dopamine receptor (P14416 whole entry): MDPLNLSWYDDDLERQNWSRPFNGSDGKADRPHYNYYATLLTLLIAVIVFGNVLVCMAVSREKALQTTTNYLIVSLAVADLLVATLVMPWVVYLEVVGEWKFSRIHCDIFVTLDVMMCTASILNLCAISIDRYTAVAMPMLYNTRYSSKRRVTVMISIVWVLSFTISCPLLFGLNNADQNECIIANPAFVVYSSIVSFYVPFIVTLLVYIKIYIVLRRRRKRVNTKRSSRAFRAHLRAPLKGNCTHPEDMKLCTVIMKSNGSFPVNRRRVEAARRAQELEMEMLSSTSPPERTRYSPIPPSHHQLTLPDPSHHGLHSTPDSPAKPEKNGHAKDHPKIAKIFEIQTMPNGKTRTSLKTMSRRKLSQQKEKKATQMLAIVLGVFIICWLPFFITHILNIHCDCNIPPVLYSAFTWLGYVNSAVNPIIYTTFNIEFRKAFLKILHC
Experiment [5] deals with Calcium/calmodulin-dependent protein kinase type 1B (Homo sapiens, UniProt Q6P2M8). The experiment can be described thus: Selectivity interaction (KinomeScan (DiscoverX)) EUB0000728a PNCK. Conditions: at 1 µM.
A further experiment deals with Collagenase 3 (Homo sapiens, UniProt P45452). The experiment can be described thus: Selectivity interaction (Lead profiling screen (Eurofins, enzymes, transporters, GPCRs, ion chanels)) EUB0000728a MMP13.
The target in a further experiment is Stromelysin-2 (Homo sapiens, UniProt P09238). The experiment can be described thus: Selectivity interaction (Lead profiling screen (Eurofins, enzymes, transporters, GPCRs, ion chanels)) EUB0000728a MMP10.
Chain of Stromelysin-2 (P09238 whole entry): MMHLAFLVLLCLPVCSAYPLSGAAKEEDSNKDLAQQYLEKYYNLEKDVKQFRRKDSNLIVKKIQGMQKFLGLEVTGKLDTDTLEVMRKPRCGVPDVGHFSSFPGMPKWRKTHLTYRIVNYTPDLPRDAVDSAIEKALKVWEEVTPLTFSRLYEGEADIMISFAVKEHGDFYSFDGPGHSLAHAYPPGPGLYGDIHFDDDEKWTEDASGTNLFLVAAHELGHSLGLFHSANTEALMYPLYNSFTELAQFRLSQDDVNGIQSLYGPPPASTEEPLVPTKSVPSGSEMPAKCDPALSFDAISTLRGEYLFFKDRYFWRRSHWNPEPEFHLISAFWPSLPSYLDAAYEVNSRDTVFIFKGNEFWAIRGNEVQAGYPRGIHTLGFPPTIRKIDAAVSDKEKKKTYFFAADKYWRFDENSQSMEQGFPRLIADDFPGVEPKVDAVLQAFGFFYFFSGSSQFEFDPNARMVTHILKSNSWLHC
The target of experiment [6] is Matrix metalloproteinase-14 (Homo sapiens, UniProt P50281). Description: Selectivity interaction (Lead profiling screen (Eurofins, enzymes, transporters, GPCRs, ion chanels)) EUB0000728a MMP14.
The target of experiment [7] is Matrix metalloproteinase-16 (Homo sapiens, UniProt P51512). Description: Selectivity interaction (Lead profiling screen (Eurofins, enzymes, transporters, GPCRs, ion chanels)) EUB0000728a MMP16.
Chain of Matrix metalloproteinase-16 (P51512 whole entry): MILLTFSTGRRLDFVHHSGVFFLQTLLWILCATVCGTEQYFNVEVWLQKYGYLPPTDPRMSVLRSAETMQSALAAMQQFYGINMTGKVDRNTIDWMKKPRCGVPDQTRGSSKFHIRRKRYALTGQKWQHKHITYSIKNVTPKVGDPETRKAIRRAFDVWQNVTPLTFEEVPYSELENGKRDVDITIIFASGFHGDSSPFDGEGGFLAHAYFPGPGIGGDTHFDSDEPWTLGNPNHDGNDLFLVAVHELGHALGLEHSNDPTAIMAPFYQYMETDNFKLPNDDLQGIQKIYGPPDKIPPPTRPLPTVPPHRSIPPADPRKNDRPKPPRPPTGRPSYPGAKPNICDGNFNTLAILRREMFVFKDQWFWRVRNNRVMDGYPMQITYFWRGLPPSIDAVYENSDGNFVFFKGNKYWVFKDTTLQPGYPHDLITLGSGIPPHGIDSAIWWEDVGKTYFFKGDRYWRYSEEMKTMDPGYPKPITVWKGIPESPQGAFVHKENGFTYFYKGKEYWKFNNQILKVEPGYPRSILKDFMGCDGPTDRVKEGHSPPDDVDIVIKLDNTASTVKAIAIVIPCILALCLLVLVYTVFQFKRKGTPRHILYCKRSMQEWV
Experiment [8] deals with 72 kDa type IV collagenase (Homo sapiens, UniProt P08253). Description: Selectivity interaction (Lead profiling screen (Eurofins, enzymes, transporters, GPCRs, ion chanels)) EUB0000728a MMP2.
The target of the next experiment is Stromelysin-1 (Homo sapiens, UniProt P08254). Description: Selectivity interaction (Lead profiling screen (Eurofins, enzymes, transporters, GPCRs, ion chanels)) EUB0000728a MMP3.
For the next experiment, the target named is T2, Matrilysin (Homo sapiens, UniProt P09237).
T2 sequence (P09237 whole entry): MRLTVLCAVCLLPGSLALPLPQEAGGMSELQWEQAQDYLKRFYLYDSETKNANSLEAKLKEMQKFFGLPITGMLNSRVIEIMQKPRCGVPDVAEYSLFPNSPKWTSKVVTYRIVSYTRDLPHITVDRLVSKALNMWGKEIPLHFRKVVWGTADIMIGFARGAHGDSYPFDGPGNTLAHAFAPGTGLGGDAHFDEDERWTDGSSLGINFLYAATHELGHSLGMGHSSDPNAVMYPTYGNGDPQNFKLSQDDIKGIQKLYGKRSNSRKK
Description: Selectivity interaction (Lead profiling screen (Eurofins, enzymes, transporters, GPCRs, ion chanels)) EUB0000728a MMP7.

A further experiment has as its target Neutrophil collagenase (Homo sapiens, UniProt P22894). The experiment can be described thus: Selectivity interaction (Lead profiling screen (Eurofins, enzymes, transporters, GPCRs, ion chanels)) EUB0000728a MMP8.
Experiment [9] has as its target Matrix metalloproteinase-9 (Homo sapiens, UniProt P14780). Description: Selectivity interaction (Lead profiling screen (Eurofins, enzymes, transporters, GPCRs, ion chanels)) EUB0000728a MMP9.
Experiment [10] deals with Epidermal growth factor receptor (Homo sapiens, UniProt P00533). The experiment can be described thus: Selectivity interaction (KinomeScan (DiscoverX)) EUB0000728a EGFR. Conditions: at 1 µM.
Chain of Epidermal growth factor receptor (P00533 whole entry): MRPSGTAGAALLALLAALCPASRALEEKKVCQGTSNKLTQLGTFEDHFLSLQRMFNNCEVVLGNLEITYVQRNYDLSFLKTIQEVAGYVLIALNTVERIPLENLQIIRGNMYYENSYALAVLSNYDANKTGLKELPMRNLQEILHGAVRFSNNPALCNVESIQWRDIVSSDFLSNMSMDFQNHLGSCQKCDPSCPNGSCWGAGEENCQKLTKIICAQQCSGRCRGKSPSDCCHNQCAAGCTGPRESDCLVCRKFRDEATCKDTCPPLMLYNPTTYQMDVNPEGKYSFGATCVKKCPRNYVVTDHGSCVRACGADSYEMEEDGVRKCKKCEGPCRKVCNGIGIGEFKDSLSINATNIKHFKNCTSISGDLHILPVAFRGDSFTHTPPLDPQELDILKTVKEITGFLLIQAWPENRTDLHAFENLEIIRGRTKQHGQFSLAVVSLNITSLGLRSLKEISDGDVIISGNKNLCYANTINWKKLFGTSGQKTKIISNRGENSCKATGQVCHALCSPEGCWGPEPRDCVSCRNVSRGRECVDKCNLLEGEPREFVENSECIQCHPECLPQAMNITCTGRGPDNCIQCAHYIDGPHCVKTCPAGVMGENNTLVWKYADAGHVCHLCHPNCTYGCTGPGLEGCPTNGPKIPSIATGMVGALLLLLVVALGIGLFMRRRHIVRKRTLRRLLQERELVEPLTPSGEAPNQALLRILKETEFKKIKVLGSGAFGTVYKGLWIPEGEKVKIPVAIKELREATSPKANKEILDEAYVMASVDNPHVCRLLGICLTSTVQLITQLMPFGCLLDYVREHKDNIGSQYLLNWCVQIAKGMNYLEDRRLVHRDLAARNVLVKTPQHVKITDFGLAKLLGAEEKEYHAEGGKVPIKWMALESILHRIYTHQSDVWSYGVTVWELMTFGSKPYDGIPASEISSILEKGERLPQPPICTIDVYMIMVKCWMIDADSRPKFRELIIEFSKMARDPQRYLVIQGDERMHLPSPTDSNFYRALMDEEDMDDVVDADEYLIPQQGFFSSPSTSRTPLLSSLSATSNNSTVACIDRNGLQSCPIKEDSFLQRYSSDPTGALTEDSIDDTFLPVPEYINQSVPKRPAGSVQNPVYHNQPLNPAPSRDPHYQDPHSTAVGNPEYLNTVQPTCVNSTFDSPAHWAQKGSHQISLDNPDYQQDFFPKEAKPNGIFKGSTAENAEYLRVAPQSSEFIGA
For experiment [11], the target named is Non-receptor tyrosine-protein kinase TYK2 (Homo sapiens, UniProt P29597). The experiment can be described thus: Selectivity interaction (KinomeScan (DiscoverX)) EUB0000728a TYK2. As to conditions: at 1 µM.

Chain of Coagulation factor VII (P08709 61-212 limits assumed): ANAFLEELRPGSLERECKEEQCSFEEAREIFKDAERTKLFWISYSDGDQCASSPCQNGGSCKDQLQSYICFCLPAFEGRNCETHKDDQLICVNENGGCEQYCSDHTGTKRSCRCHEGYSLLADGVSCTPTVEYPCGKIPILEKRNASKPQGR
Chain of Coagulation factor VII (P08709 213-466 limits assumed): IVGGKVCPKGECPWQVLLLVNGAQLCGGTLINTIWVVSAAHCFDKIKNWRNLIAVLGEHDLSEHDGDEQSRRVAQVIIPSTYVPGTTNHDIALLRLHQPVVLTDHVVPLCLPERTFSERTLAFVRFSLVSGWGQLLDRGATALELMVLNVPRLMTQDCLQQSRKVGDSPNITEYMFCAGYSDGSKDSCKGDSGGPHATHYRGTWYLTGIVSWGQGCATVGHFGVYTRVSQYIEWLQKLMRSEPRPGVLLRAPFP
Chain of Chymotrypsin-like elastase family member 1 (Q9UNI1 whole entry): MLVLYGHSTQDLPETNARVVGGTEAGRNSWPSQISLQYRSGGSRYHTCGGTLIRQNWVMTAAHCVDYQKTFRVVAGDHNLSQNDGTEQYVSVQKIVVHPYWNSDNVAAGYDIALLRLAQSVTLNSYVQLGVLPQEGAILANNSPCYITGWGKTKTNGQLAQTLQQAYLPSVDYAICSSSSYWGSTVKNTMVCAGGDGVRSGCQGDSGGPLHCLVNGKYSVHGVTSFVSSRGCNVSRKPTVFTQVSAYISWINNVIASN
Chain of Kallikrein-4 (Q9Y5K2 whole entry): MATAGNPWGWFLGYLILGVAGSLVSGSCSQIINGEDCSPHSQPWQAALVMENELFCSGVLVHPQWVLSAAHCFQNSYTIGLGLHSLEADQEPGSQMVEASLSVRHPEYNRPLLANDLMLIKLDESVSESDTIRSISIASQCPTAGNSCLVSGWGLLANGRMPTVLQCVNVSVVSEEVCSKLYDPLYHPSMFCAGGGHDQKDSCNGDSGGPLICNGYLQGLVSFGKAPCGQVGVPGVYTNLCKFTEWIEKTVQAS

As to `CC(=O)C1=C(C)N(c2cccc(C(F)(F)F)c2)C(=O)N[C@@H]1c1ccc(C#N)nc1` [BAY-678], the IC50 (in [1]; against Chymase; against Chymotrypsin-C; on Cathepsin G; against Coagulation factor XI; on Coagulation factor VII) was more than 30000 nM throughout. The IC50 against Coagulation factor IX, against Kallikrein-1, against Kallikrein-12, at Kallikrein-4, on Kallikrein-5 and on Kallikrein-7 was more than 30000 nM throughout. For the same compound, the IC50 against Plasma kallikrein, at Plasminogen, against Serine protease 1, against Dipeptidyl peptidase 2, on Dipeptidyl peptidase 4 and against Prolyl endopeptidase FAP was more than 30000 nM in each case. Also, the % of control in experiment [2] was 48.7%; in experiment [3] it was 45.5%.

In experiment [4], `CCNC(=O)c1cc2c(N3CCOC[C@@H]3C)ccnc2[nH]1` came in with an inhibition constant (Ki) of 1530 nM.

`O=C(O)[C@H]1[C@H](Cn2nnc3ccccc3c2=O)CC[C@@H]1C(=O)c1ccc(OCCC2CCOCC2)cc1` [BAY-7598] returned a % of inhibition at D(2) dopamine receptor of 30%. Moreover, the % of control in experiment [5] came to 46%; in [10], 40%; in experiment [11] it was 41%. Further, the IC50 at Collagenase 3 was 67 nM; on Stromelysin-2, 13 nM; in experiment [6], 250 nM; in [7], 940 nM; in experiment [8], 44 nM; against Stromelysin-1 it was 360 nM. For the same compound, the IC50 against Matrilysin was found to be 600 nM; on Neutrophil collagenase, 15 nM; in [9], 460 nM.
